The results in this text go back to PMC10004634 (PLOS ONE, 2023).

The test system of assay [1] is other BioMAP systems such as the T-cell and fibroblast activation systems. Briefly: BioMAP Diversity PLUS profiling, other evaluation systems. The class given is cell-based, human. Conditions: 120, 370, 1100, 3300 nM. As to the method:
In brief, cultures with one or more primary cell types from healthy human donors were treated with sets of stimulators specific to the cell subsets, and the optimized biomarker readouts for each system were measured by ELISA and other techniques, as listed in S1 Table. The assays included positive and negative controls as well as vehicle control. Results are presented as the log-transformed ratio of biomarker readouts for tirabrutinib-treated samples to vehicle controls.

For another assay, the system named is TMD8 cells. In words: Western blot of IRF4, BCL6, c-MYC protein expression. The format is cell-based, human. Conditions: 24 h, 1 μM. Here is the method:
After culturing, cells were harvested and lysed with cell lysis buffer (Cell Signaling Technology, Inc.) containing 1 mM AEBSF (Calbiochem, #101500). As a positive control of BTK autophosphorylation for western blot analysis, TMD8 cells were treated with hydrogen peroxide (H2O2; final concentration: 6 mM) for 10 min, harvested as a control sample, and then lysed with the cell lysis buffer.
Each mixture of cells and cell lysis buffer was incubated on ice for 5 min, then centrifuged at 13400 × g and 4°C for 10 min. Total lysates were loaded on 4%–12% SDS-PAGE (Bio-Rad) and transferred to a polyvinylidene difluoride (PVDF) membrane (Immobilon-P Transfer Membrane, Millipore Corporation). The blot was incubated in Tris-buffered saline with Tween 20 (TBS-T, Cell Signaling Technology, Inc.) containing 2 w/v% ECL Advance Blocking Agent (GE Healthcare Life Sciences, b) for 1 h at room temperature. The blocked PVDF membranes were immersed in TBS-T and washed three times with shaking at room temperature for 10 min. The membrane was incubated with primary antibody in TBS-T containing 2 w/v% ECL Advance Blocking Agent with gentle agitation overnight at 5°C in a cold storage room or for 1 h at room temperature. […] Lumino-image analyzer (LAS-1000 Plus system, Fuji Photo Film Co., Ltd.) and Image Reader LAS-1000 Lite version 1.3 (Fuji Photo Film Co., Ltd.) were used to visualize bands. […]

A further assay concerns the target T1, ABL1-nonphosphorylated (Homo sapiens, UniProt P00519).
T1 construct: nonphosphorylated
Briefly: biochemical. More on the design: KINOMEscan scanMAX competition binding, DNA-tagged kinases, qPCR read-out, percent control at 300 nM. Conditions: read-out: Percent control / Acalabrutinib.

A further assay has as its target CAMK1 (Homo sapiens, UniProt Q14012). Briefly: biochemical. Details: KINOMEscan scanMAX competition binding, DNA-tagged kinases, qPCR read-out, percent control at 300 nM. The following applies: read-out: Percent control / Acalabrutinib.
Another assay concerns the target CSNK1A1 (Homo sapiens, UniProt P48729). In words: biochemical. The following applies: read-out: Percent control / Acalabrutinib. Details: KINOMEscan scanMAX competition binding, DNA-tagged kinases, qPCR read-out, percent control at 300 nM.
The target in a further assay is EPHA1 (Homo sapiens, UniProt P21709). In words: biochemical. Conditions: read-out: Percent control / Acalabrutinib. More on the design: KINOMEscan scanMAX competition binding, DNA-tagged kinases, qPCR read-out, percent control at 300 nM.
The target in another assay is PKN2 (Homo sapiens, UniProt Q16513). Briefly: biochemical. Details: KINOMEscan scanMAX competition binding, DNA-tagged kinases, qPCR read-out, percent control at 300 nM. Conditions: read-out: Percent control / Acalabrutinib.
The next assay has as its target CDKL5 (Homo sapiens, UniProt O76039). In words: biochemical. Details: KINOMEscan scanMAX competition binding, DNA-tagged kinases, qPCR read-out, percent control at 300 nM. Conditions: read-out: Percent control / Zanubrutinib.
The target in another assay is T2, IKK-beta (Homo sapiens, UniProt O14920).
T2 construct: gene IKBKB
Briefly: biochemical. More on the design: KINOMEscan scanMAX competition binding, DNA-tagged kinases, qPCR read-out, percent control at 300 nM. The following applies: read-out: Percent control / Zanubrutinib.

For the next assay, the target named is RIOK2 (Homo sapiens, UniProt Q9BVS4). In words: biochemical. More on the design: KINOMEscan scanMAX competition binding, DNA-tagged kinases, qPCR read-out, percent control at 300 nM. Conditions: read-out: Percent control / Zanubrutinib.
Chain of RIOK2 (Q9BVS4 whole entry): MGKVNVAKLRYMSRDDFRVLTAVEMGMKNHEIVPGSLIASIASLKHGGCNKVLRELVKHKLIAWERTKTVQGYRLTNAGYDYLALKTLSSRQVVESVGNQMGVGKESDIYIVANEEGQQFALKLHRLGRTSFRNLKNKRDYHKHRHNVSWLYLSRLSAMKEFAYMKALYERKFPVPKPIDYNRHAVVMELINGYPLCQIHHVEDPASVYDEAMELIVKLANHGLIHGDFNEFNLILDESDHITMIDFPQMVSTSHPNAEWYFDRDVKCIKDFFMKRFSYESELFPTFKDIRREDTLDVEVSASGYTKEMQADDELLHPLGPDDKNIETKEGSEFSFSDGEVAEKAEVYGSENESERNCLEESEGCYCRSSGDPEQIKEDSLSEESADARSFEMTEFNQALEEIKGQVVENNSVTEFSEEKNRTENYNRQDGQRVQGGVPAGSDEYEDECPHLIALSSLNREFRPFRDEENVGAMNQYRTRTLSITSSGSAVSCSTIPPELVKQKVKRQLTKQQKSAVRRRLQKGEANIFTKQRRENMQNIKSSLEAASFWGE

Chain of EPHA1 (P21709 whole entry): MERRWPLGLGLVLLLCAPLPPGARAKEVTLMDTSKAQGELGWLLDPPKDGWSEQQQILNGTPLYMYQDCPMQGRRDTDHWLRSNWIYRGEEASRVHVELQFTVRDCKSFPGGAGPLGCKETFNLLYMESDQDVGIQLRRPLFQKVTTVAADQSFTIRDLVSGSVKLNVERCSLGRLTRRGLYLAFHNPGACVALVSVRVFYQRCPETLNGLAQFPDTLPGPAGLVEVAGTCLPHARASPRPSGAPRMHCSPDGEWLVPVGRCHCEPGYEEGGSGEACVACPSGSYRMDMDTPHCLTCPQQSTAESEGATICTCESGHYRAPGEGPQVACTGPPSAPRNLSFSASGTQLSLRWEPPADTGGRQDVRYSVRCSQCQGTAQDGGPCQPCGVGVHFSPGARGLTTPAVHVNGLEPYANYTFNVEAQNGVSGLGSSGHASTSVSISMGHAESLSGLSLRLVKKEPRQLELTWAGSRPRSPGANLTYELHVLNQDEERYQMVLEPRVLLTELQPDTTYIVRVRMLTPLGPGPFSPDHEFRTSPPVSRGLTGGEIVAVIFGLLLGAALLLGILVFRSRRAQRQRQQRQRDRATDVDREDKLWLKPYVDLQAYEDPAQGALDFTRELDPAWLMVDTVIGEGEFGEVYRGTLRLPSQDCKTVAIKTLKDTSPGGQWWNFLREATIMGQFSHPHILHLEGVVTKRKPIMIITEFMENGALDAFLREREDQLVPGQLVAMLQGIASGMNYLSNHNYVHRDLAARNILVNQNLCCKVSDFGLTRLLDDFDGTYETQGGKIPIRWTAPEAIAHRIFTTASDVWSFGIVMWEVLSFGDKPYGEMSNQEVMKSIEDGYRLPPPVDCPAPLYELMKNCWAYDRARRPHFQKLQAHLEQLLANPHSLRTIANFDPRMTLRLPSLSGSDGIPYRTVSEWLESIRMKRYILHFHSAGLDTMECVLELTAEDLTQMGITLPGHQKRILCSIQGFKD
T2 sequence (O14920 whole entry): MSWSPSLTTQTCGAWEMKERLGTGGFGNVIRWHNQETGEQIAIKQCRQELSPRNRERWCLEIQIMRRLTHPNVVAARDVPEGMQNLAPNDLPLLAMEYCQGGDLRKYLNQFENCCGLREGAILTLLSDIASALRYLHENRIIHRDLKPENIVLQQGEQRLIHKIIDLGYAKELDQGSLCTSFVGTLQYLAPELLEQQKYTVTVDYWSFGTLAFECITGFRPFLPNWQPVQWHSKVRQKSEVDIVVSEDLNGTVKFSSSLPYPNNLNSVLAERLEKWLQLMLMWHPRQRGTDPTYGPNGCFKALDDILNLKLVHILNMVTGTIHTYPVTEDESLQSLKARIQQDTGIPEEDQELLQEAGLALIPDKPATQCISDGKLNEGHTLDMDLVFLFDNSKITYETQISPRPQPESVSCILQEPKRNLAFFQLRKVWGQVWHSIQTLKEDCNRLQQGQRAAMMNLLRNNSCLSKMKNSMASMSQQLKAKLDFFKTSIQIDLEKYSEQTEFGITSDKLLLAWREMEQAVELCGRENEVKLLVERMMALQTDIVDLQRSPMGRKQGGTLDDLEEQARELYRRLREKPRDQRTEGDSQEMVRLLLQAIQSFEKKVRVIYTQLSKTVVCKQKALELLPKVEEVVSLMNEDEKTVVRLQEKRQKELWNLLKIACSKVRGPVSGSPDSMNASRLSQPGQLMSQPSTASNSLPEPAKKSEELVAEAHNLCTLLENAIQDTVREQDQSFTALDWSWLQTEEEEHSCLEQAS
Chain of PKN2 (Q16513 whole entry): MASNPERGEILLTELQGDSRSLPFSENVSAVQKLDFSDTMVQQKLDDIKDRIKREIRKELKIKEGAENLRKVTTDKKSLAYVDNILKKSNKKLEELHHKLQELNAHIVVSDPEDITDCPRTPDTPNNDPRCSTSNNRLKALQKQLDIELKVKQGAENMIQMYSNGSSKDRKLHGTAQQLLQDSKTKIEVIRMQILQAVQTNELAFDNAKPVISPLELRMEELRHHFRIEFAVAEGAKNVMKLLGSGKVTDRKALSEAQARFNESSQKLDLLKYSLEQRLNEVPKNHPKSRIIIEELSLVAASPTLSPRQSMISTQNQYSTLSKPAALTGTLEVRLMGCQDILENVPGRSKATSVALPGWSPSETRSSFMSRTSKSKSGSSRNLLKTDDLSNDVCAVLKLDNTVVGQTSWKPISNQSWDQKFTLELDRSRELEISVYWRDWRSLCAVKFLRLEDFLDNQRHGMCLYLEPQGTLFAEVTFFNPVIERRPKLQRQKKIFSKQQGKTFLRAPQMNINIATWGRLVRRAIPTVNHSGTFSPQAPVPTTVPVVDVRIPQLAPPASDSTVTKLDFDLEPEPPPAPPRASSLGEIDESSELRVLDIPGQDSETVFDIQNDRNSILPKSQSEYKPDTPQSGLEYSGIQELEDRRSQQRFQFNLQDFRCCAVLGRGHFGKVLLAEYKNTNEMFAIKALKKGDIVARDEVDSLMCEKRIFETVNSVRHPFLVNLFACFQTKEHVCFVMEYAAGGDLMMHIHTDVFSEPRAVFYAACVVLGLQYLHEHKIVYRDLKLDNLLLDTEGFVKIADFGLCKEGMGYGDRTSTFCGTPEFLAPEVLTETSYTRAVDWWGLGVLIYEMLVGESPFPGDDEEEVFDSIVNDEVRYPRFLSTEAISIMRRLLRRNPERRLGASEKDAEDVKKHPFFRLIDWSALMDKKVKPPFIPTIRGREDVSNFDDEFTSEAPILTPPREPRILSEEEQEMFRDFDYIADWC
Chain of CSNK1A1 (P48729 whole entry): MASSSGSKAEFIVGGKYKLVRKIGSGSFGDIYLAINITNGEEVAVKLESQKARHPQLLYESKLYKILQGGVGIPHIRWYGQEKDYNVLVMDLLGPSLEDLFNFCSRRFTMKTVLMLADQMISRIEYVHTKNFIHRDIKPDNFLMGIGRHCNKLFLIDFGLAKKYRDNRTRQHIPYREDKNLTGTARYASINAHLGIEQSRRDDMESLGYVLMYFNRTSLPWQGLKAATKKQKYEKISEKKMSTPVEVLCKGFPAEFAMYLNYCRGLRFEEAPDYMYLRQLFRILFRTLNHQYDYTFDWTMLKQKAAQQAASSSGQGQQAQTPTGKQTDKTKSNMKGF
T1 sequence (P00519 whole entry): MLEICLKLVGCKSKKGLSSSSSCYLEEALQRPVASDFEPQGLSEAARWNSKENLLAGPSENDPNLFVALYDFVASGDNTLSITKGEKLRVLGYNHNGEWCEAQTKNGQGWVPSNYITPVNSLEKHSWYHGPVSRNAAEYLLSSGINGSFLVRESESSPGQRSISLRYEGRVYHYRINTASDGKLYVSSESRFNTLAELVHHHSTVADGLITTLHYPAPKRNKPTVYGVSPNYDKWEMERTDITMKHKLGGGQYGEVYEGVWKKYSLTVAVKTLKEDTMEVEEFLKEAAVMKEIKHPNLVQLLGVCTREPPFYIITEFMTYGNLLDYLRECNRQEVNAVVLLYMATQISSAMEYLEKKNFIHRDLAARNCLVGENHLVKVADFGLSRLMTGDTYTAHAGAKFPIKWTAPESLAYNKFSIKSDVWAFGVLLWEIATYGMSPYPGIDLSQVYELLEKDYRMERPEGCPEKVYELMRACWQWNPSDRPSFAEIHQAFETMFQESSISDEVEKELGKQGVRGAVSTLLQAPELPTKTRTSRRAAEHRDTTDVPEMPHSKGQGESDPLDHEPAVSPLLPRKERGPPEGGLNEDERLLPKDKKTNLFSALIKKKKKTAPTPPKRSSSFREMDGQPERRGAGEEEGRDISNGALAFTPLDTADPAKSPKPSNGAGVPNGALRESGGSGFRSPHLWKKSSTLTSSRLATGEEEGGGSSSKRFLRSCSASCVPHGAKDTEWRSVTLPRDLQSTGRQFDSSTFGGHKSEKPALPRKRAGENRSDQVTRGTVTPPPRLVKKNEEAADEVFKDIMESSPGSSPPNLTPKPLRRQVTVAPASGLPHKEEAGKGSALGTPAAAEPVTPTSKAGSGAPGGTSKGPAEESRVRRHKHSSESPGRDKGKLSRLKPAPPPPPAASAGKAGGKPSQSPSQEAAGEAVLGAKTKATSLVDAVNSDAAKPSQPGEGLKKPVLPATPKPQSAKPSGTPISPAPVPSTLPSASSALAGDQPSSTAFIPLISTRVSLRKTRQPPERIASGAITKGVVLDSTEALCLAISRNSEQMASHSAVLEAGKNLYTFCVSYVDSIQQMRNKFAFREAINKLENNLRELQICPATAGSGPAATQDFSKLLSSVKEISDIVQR

On to `CC#CC(=O)N1CC[C@@H](n2c(=O)n(-c3ccc(Oc4ccccc4)cc3)c3c(N)ncnc32)C1` [Tirabrutinib], for which the “effect in other BioMAP evaluation systems” value in assay [1] is on record as “no significant effect”. Moreover, in the assay with TMD8 cells, the BCL6 protein expression entry is listed as “not changed”, the IRF4 protein expression result is “downregulation” and the MYC protein expression result is recorded as “downregulation”.
Turning to `CC#CC(=O)N1CCC[C@H]1c1nc(-c2ccc(C(=O)Nc3ccccn3)cc2)c2c(N)nccn12` [Acalabrutinib], the remaining binding at 0.3 µM turned out to be 87% on ABL1-nonphosphorylated; 58% at CAMK1; 76% at CSNK1A1; 85% at EPHA1; 93% at PKN2.
As for `C=CC(=O)N1CCC([C@@H]2CCNc3c(C(N)=O)c(-c4ccc(Oc5ccccc5)cc4)nn32)CC1` [Zanubrutinib], the figures for the remaining binding at 0.3 µM at CDKL5, at IKK-beta and on RIOK2 were 100%, 100% and 94%, respectively.
